A short description of test [1]: Inhibition of Ca2+/CaM kinase II (unknown origin) assessed as inhibition constant. More on the design: species or system Homo sapiens.
Test [2] in a line: Inhibition of MLC (unknown origin) assessed as inhibition constant. Also noted: species or system Homo sapiens.
Test [3] can be described thus: Inhibition of Ca2+/CaM kinase II (unknown origin). Also noted: species or system Homo sapiens.
The species entered for the next test is Gallus gallus. Description: Inhibition of chicken gizzard MLC at 45 uM in presence of [gamma-33P]ATP relative to control.
Test [4] is described as follows: Inhibition of rat brain Ca2+/CaM kinase II autophosphorylation assessed as decrease in exogenous substrate phosphorylation at 50 uM incubated for 1 min in presence of [gamma-33P]ATP relative to control. Also noted: scale not given: the % may be the effect or the level left.
Test [5] can be described thus: Inhibition of rat brain Ca2+/CaM kinase II autophosphorylation measured at Pi/mg enzyme after phosphorylation at 50 uM incubated for 5 min in presence of [gamma-33P]ATP.
Test [6] has as its target Protein kinase C (PKC) (Homo sapiens) (UniProt O94806+P41743+P17252+P05129+Q05655+P05771+Q05513+Q02156+P24723+Q15139+Q04759). Description: Inhibition of protein kinase C (unknown origin) at 45 uM relative to control. It counts as protein assay.
The species entered for test [7] is Rattus norvegicus. Kind of test: Binding affinity to rat brain Ca2+/CaM kinase II in presence of [gamma-33P]ATP by Sepharose coupled chromatography based analysis. The format is tissue-based.
The nature of test [8]: Competitive inhibition of rat brain Ca2+/CaM kinase II assessed as inhibition constant in presence of [gamma-33P]ATP and varying concentration of calmodulin. The format is tissue-based.
Test [9] addresses Calcium/calmodulin-dependent protein kinase type II subunit alpha (Rattus norvegicus, UniProt P11275). Description: Inhibition of rat brain Ca2+/CaM kinase II alpha subunit autophosphorylation measured after 2 mins in presence of [gamma-33P]ATP by SDS-PAGE analysis. It counts as tissue-based.
For test [10], the system named is PC12D. Kind of test: Inhibition of A23187-induced Ca2+/CaM kinase II 40-kDa in [32P] orthophosphate labeled rat PC12D cells assessed as increase in phosphorylation at 0.5 to 1 uM preincubated with compound for 1 hr followed by A23187 induction and measured after 30 mins by immunoprecipitation method. The format is cell-based. Conditions: dose 0.5-1 µM, time 1.5 hrs.

Test [11] can be described thus: Inhibition of rat brain Ca2+/CaM kinase II independent activity assessed as fold increase in enzyme activity at 50 uM incubated for 1 min.
Test [12] has as its system PC12D. Kind of test: Inhibition of A23187-induced Ca2+/CaM kinase II 53-kDa in [32P] orthophosphate labeled rat PC12D cells assessed as increase in phosphorylation at 0.5 to 1 uM preincubated with compound for 1 hr followed by A23187 induction and measured after 30 mins by immunoprecipitation method. Particulars: dose 0.5-1 µM, time 1.5 hrs. The format is cell-based.

For test [13], the species on record is Rattus norvegicus. Description: Competitive inhibition of rat brain Ca2+/CaM kinase II at 0.5 to 2.5 uM in presence of calmodulin and varying concentration of [gamma-33P]ATP. The format is tissue-based. Particulars: dose 0.5-2.5 µM.
Another test is filed under the species Homo sapiens. Description: Inhibition of Ca2+/CaM kinase II (unknown origin) at 1 uM in presence of [gamma-33P]ATP relative to control.
Test [14] deals with PC12D. Description: Inhibition of A23187-induced Ca2+/CaM kinase II 53-kDa autophosphorylation in [32P] orthophosphate labeled rat PC12D cells preincubated with compound for 1 hr followed by A23187 induction and measured after 30 mins by immunoprecipitation method. Particulars: dose 0.5-1 µM, time 1.5 hrs. It counts as cell-based.
Test [15] concerns the target Calcium/calmodulin-dependent protein kinase type II subunit beta (Rattus norvegicus, UniProt P08413). Kind of test: Inhibition of rat brain Ca2+/CaM kinase II beta subunit autophosphorylation measured after 2 mins in presence of [gamma-33P]ATP by SDS-PAGE analysis. The format is tissue-based.
Test [16] deals with cAMP-dependent protein kinase (PKA) (Homo sapiens) (UniProt P22694+P17612+P22612). Kind of test: Inhibition of protein kinase A (unknown origin) at 45 uM relative to control. It counts as protein assay.
The nature of test [17]: Inhibition of rat brain Ca2+/CaM kinase II autophosphorylation assessed as incorporation of 32P into myosin kDa light chain measured at Pi/mg enzyme at 50 uM incubated for 1 min in presence of [gamma-33P]ATP.
For test [18], the species on record is Rattus norvegicus. Kind of test: Inhibition of rat brain Ca2+/CaM kinase II autophosphorylation assessed as decrease in exogenous substrate phosphorylation at 50 uM incubated for 1 min in presence of [gamma-33P]ATP measured after phosphorylation. The format is tissue-based.

pIC50, pKi: −log10 of the molar value. Active and inactive are the calls of the source. The rule behind the calls is not given here.

Sequence of Calcium/calmodulin-dependent protein kinase type II subunit alpha (P11275 whole entry): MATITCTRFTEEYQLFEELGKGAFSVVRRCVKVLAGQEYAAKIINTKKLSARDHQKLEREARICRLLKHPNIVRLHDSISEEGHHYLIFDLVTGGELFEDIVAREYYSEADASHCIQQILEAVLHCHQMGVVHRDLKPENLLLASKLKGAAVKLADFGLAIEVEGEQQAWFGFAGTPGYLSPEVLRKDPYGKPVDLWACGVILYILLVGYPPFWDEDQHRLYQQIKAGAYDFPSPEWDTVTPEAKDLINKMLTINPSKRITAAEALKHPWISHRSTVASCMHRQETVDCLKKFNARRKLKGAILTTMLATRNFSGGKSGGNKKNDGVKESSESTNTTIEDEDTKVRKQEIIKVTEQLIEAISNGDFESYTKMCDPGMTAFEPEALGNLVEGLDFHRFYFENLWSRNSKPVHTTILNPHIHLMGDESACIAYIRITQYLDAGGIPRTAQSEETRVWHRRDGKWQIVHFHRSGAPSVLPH
Sequence of Calcium/calmodulin-dependent protein kinase type II subunit beta (P08413 whole entry): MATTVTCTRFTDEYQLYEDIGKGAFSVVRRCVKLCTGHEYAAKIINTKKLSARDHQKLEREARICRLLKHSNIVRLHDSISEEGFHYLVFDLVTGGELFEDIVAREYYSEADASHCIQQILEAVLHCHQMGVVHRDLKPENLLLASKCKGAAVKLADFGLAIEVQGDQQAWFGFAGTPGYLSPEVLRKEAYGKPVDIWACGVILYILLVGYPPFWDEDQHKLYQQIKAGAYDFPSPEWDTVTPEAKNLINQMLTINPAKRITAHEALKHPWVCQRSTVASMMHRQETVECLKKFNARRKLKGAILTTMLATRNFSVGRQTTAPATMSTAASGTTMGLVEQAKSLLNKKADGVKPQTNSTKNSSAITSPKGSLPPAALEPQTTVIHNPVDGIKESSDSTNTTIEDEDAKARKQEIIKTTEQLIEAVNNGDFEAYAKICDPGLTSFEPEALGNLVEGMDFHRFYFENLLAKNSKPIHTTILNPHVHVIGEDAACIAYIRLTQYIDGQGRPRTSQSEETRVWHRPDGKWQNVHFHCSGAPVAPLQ

Turning to `NCCCCCCNS(=O)(=O)c1cccc2c(Cl)cccc12`, the pKi in test [1] was 5.12; in [2], 4.74. The compound also gave a pIC50 in [3] of 4.82.

With `CN([C@@H](Cc1ccc(OS(=O)(=O)c2cccc3cnccc23)cc1)C(=O)N1CCN(c2ccccc2)CC1)S(=O)(=O)c1cccc2cnccc12`, the inhibition in the test filed under Gallus gallus is 12%; in [6] it was 12%; in the test listed under Homo sapiens, 80%; with PC12D [14], “Dose-Dependent Effect”; in [16], 22%. For the same compound, the Activity came to 75% in test [4], 8.1 nmol in [5] and 1.8 nmol in [17]. Moreover, the outcome in the test listed under Rattus norvegicus [7] and with PC12D [12] was Active. The pKi in [8] is 6.05. Also, the values for the pIC50 in test [9] and in test [15] were 6.35 and 6.00, respectively. Also, the result in the test with PC12D [10] and in the test filed under Rattus norvegicus [18] was inactive. In addition, the “fold change (FC)” value in test [11] is listed as 2.5. Further, the inhibition result in the test listed under Rattus norvegicus [13] is “inactive”.

The values are drawn from ChEMBL document CHEMBL5653607, “KN-62, 1-[N,O-bis(5-isoquinolinesulfonyl)-N-methyl-L-tyrosyl]-4-phenylpiperazi ne, a specific inhibitor of Ca2+/calmodulin-dependent protein kinase II” (J Biol Chem, 1990).
